Measurements as given in paper PMC8961551, “Potential Anticancer Agents against Melanoma Cells Based on an As-Synthesized Thiosemicarbazide Derivative” (Biomolecules, 2022).
Read-outs that look alike come from different tables or passages of the source.

Key:
G-361 melanoma = experiment: MTT cytotoxicity, G-361 melanoma; format: cell-based, human; conditions: for IC50: MTT test, 24 h treatment, G-361 melanoma; for cytotoxic to melanoma cells (MTT test): G-361, concentration range used
Procedure: (§1) Biological studies were performed on human malignant melanoma G-361 (ATCC CRL-1424) cell lines and human fibroblast BJ (ATCC® CRL-2522™) cell lines purchased from the American Type Culture Collection (ATCC, Manassas, VA USA). The G-361 cell lines were maintained in McCoy’s medium (Corning, NY, USA), and the fibroblast BJ cell line was cultured in EMEM (Corning, NY, USA). All media were supplemented with 10% heat-inactivated fetal bovine serum (PAN-Biotech, Aidenbach, Germany), 100 U/mL penicillin, 100 μg/mL streptomycin and 0.25 μg/mL amphotericin B (Sigma-Aldrich, St. Louis, MO, USA). Cultures were maintained at 37 °C in a humidified atmosphere of 95% air and 5% CO2. The experiments were performed using cells from passage 5 to 10.
(§2) The cytotoxicity of the new compounds was evaluated against both the G-361 and BJ cell lines. Cells were seeded into 96-well plates at a density of 3 × 10^4 cells/well and 2 × 10^4 cells/well. After 24 h of incubation, when 70–80% confluence was reached, the culture medium was removed and replaced with the fresh one containing the tested compounds in the concentration range of 10, 25, 50, 75, 100, 125 and 250 μM. Cells were cultured at 37 °C in the presence of 5% air with CO2 for another 24 h. The cytotoxicity of the test compounds was evaluated by the MTT colorimetric assay, based on the ability of live cells to convert yellow soluble tetrazolium salts (3-[4,5-dimethylthiazol-2-yl]- 2,5-diphenyltetrazolium bromide, MTT) to purple insoluble formazan by cellular dehydrogenase. After 24 h of incubation with solutions of the test compounds, 4 mg/mL MTT solution (Thermo Scientific, Waltham, MA, USA) was added to the cell cultures and incubation was continued for 4 h at 37 °C. The MTT medium was then removed, and the resulting crystals were dissolved in 200 µL of DMSO. The solution was measured for absorbance at 570 nm using a Power Wave xs spectrophotometric plate reader, BioTek Instruments (Winooski, VT, USA). The experiment was performed three times with three replicates for each concentration. IC50 values were determined using the AAT Bioquest IC50 calculator.

[1] = system: BJ normal fibroblast cell line; experiment: MTT cytotoxicity, BJ normal fibroblasts; format: cell-based, human; conditions: MTT test, 24 h treatment, BJ normal fibroblasts, concentration range 10-250 µM, read-out: IC50 BJ
Procedure: as §1, §2

RP-HPLC lipophilicity = format: physicochemical; conditions: for logkW (chromatographic lipophilicity parameter): Kinetex C18, methanol-water 55-80%, extrapolated to 0% methanol; for -S HPLC (slope of linear equation): Table S3
Procedure: RP-HPLC analysis was performed using a Merck-Hitachi LaChrom Elite System (Merck, Darmstadt, Germany) with diode array detector L-2455, thermostat L-2300, pump L-2130 and autosampler L-2200 with a Kinetex C18 (5µm; 150 × 4,6mm) chromatographic column (Phenomenex, Torrance, USA) as the stationary phase. The mobile phase consisted of methanol (Merck, Darmstadt, Germany) and water (double-distilled), which was degassed by use of the built-in membrane degasser. Subsequently, 5 μL methanolic solution (0.1%; m/v) of the selected samples was applied to the chromatographic column by use of a Hitachi L-2200 autosampler (LaChrom Elite, Hitachi-Merck, Darmstadt, Germany). The analysis was performed with a flow rate of 0.7 mL min^−1 in isocratic mode using various concentrations of organic modifier (methanol) in binary polar mobile phases; percentages of methanol in water were 55–80% (%, v/v) and changed by 5% per step. Chromatograms were detected at 254 nm and the temperature of the column was 25 °C. All experiments were repeated in triplicate and the final results were taken to be the arithmetic means. Dead time was measured using uracil (Calbiochem. Merck, Darmstadt, Germany).

RP-TLC lipophilicity = format: physicochemical; conditions: for RMW (chromatographic lipophilicity parameter): RP-18 plates, methanol-water 65-95%, extrapolated to 0% methanol; for -S TLC (slope of linear equation): Table S3
Procedure: RP-TLC analysis was performed using RP-18 TLC silica gel 60 F254 plates (10 × 20 cm, Merck, Darmstadt, Germany) with a DS-II chromatographic horizontal chamber (CHROMDES, Lublin, Poland). The mobile phase consisted of methanol (POCH, Gliwice, Poland) and water with the following concentrations of methanol: 65–95% (%, v/v), with a concentration change every 5%. After drying, the spots were observed under a UV lamp with a wavelength of 254 nm.

Molecule | IC50 (G-361 melanoma) | IC50 [1] | logkW (chromatographic lipophilicity parameter) (RP-HPLC lipophilicity) | -S HPLC (slope of linear equation) (RP-HPLC lipophilicity) | RMW (chromatographic lipophilicity parameter) (RP-TLC lipophilicity) | -S TLC (slope of linear equation) (RP-TLC lipophilicity) | cytotoxic to melanoma cells (MTT test) (G-361 melanoma) | IC50 (G-361 melanoma; Homo sapiens) | IC50 ([1]; Homo sapiens, Fibroblast)
O=C(COc1ccc(Cl)cc1Cl)NNC(=S)Nc1ccc(F)cc1 [PK5, 1-(2,4-dichlorophenoxy)acetyl-4-(4-fluorophenyl)thiosemicarbazide] | > 250 µM | > 250 µM | 3.8993 | 5.5119 | 2.7612 | 3.4335 |  |  | 
O=C(COc1ccc(Cl)cc1Cl)NNC(=S)Nc1cccc(F)c1 [PK10, 1-(2,4-dichlorophenoxy)acetyl-4-(3-fluorophenyl)thiosemicarbazide] | 218 ± 5.34 µM | 223 ± 7 µM |  |  |  |  | cytotoxic |  | 
1-[[2-(2,4-Dichlorophenoxy)acetyl]amino]-3-[4-[[[2-(2,4-dichlorophenoxy)acetyl]amino]carbamoylamino]phenyl]thiourea [PK13] | > 250 µM | > 250 µM |  |  |  |  |  |  | 
O=C(COc1ccc(Cl)cc1Cl)NNC(=S)Nc1ccc(Br)cc1 [PK12, 1-(2,4-dichlorophenoxy)acetyl-4-(4-bromophenyl)thiosemicarbazide] |  | 189 ± 7 µM | 4.3897 | 5.8565 | 3.5706 | 4.1984 | cytotoxic |  | 
O=C(COc1ccc(Cl)cc1Cl)NNC(=S)Nc1cccc(I)c1 [PK4, 1-(2,4-dichlorophenoxy)acetyl-4-(3-iodophenyl)thiosemicarbazide] | > 250 µM | > 250 µM |  |  |  |  |  |  | 
O=C(COc1ccc(Cl)cc1Cl)NNC(=S)Nc1ccc([N+](=O)[O-])cc1 [PK3, 1-(2,4-dichlorophenoxy)acetyl-4-(4-nitrophenyl)thiosemicarbazide] | > 250 µM | > 250 µM | 2.7667 | 3.8522 | 2.4459 | 2.9474 |  |  | 
O=C(COc1ccc(Cl)cc1Cl)NNC(=S)Nc1ccccc1F [PK1, 1-(2,4-dichlorophenoxy)acetyl-4-(2-fluorophenyl)thiosemicarbazide] |  |  | 3.4437 | 4.9238 | 2.6706 | 3.1923 |  | > 250 µM | > 250 µM
O=C(COc1ccc(Cl)cc1Cl)NNC(=S)Nc1ccccc1Br [PK11, 1-(2,4-dichlorophenoxy)acetyl-4-(2-bromophenyl)thiosemicarbazide] | 162 ± 2 µM | 217 ± 64.3 µM | 3.93 | 5.3438 | 2.7832 | 3.3663 | cytotoxic |  | 
O=C(COc1ccc(Cl)cc1Cl)NNC(=S)Nc1ccc(I)cc1 [PK7, 1-(2,4-dichlorophenoxy)acetyl-4-(4-iodophenyl)thiosemicarbazide] |  |  | 4.5363 | 5.9005 | 3.8527 | 4.4553 | cytotoxic | 99 ± 4 µM | 216 ± 76 µM
O=C(COc1ccc(Cl)cc1Cl)NNC(=S)Nc1cccc(Br)c1 [PK8, 1-(2,4-dichlorophenoxy)acetyl-4-(3-bromophenyl)thiosemicarbazide] | > 250 µM | > 250 µM |  |  |  |  |  |  | 
